Measured values as given in PubChem BioAssay (NCI).
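In this assay, cells in 96-well plates receive the compound at five concentrations for 48 hours. Endpoints are linearly interpolated between the surrounding concentrations. GI50 = concentration required for 50% inhibition of growth. Definition used: TGI = concentration required for complete inhibition of growth.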

Experiments:
Test in all cases: NCI tumour cell line growth inhibition, 48 h
SNB-75 CNS = tested on: SNB-75 CNS
T-47D breast = tested on: T-47D breast
786-0 renal = tested on: 786-0 renal
KM12 colon = tested on: KM12 colon
MOLT-4 leukemia = tested on: MOLT-4 leukemia
OVCAR-5 ovarian = tested on: OVCAR-5 ovarian
K-562 leukemia = tested on: K-562 leukemia
HCC-2998 colon = tested on: HCC-2998 colon
SNB-19 CNS = tested on: SNB-19 CNS
CAKI-1 renal = tested on: CAKI-1 renal

Row | Structure (SMILES) | TGI (SNB-75 CNS) [µM] | TGI (T-47D breast) [µM] | TGI (786-0 renal) [µM] | TGI (KM12 colon) [µM] | TGI (MOLT-4 leukemia) [µM] | TGI (OVCAR-5 ovarian) [µM] | TGI (K-562 leukemia) [µM] | TGI (HCC-2998 colon) [µM] | TGI (SNB-19 CNS) [µM] | TGI (CAKI-1 renal) [µM] | GI50 (SNB-75 CNS) [µM] | GI50 (CAKI-1 renal) [µM] | GI50 (OVCAR-5 ovarian) [µM] | GI50 (SNB-19 CNS) [µM] | GI50 (T-47D breast) [µM] | GI50 (KM12 colon) [µM] | GI50 (MOLT-4 leukemia) [µM] | GI50 (K-562 leukemia) [µM]
1 | Cc1nc(N)c(N2CCN(CN)CC2)c(=O)[nH]1 | > 100 | > 100 | > 100 | > 100 | > 100 | > 100 | > 100 | > 100 | > 100 |  |  |  |  |  |  |  |  | 
2 | CN1C(=O)C(O)C[C@@H]1c1ccccc1 (some centres not stated) | > 100 | > 100 | > 100 | > 100 | > 100 | > 100 |  | > 100 | > 100 | > 100 |  |  |  |  |  |  |  | 
3 | Cc1ccc(S(=O)(=O)Nc2nnc(S(N)(=O)=O)s2)cc1 |  | > 100 | > 100 | > 100 | > 100 | > 100 | > 100 | > 100 | > 100 | > 100 |  |  |  |  |  |  |  | 
4 | CCN=C1C=CC(=C(c2ccc(N(CC)CC)cc2)c2ccc(N(CC)CC)cc2)c2ccccc21 | 0.879 |  |  |  |  | 1.23 |  |  | 1.47 | 0.273 | 0.0304 | 0.0335 | 0.294 | 0.0504 |  |  |  | 
5 | c1ccc(CN2CCC(Nc3ccccc3)(c3nnnn3Cc3ccccc3)CC2)cc1 | 92.6 | 72.4 | 60.6 | 33.3 | > 100 | 76.1 |  | 10.5 | > 100 |  |  |  |  |  |  |  |  | 
6 | C=CCC1C(O[Si](C)(C)C(C)(C)C)C(CO[Si](C)(C)C(C)(C)C)OC1n1ccc(=O)[nH]c1=O (configuration not stated) | 2.79 | 4.37 | 2.44 | > 100 | 2.84 | 2.57 |  | 3.27 | 3.06 |  |  |  |  |  |  |  |  | 
7 | CC(C)(C)OC(=O)NCC(CNC(=O)OC(C)(C)C)c1nc(C(N)=O)cs1 | > 100 |  | > 100 | > 100 | > 100 | > 100 | > 100 | > 100 | > 100 | > 100 |  |  |  |  |  |  |  | 
8 | COc1cc(C2C3=C(COC3=O)Oc3cc4c(cc32)OCO4)cc(OC)c1O (configuration not stated) |  | 60.3 | 15.5 | > 100 | 26 | 39.4 | 0.402 | 0.121 | 27.6 | 21.6 |  |  |  |  |  |  |  | 
9 | O=C1CC(=O)n2cnc3cccc(c32)N1 | > 100 | > 100 | > 100 | > 100 |  | > 100 | > 100 |  | > 100 | > 100 |  |  |  |  |  |  |  | 
10 | Cc1nnc2n1N=C(c1ccc(Cl)cc1Cl)/C(=C/c1ccc(-c3ccc([N+](=O)[O-])cc3Cl)o1)S2 | > 100 | > 100 |  | > 100 | 33.6 | 30.9 | 26.9 |  | > 100 | 84.8 | 73.2 | 25.2 | 16.5 | > 100 | 83 | 32.4 | 13.1 | 13.6
11 | Cn1c(=O)oc2nc(-c3ccccc3)cc(C(F)(F)F)c21 | > 100 | > 100 | > 100 | > 100 | > 100 | > 100 |  | > 100 | > 100 | > 100 |  |  |  |  |  |  |  | 
